The source of these data is the Kinase Knowledgebase extract (Sharma et al. 2016).

What is called IC50 is the concentration that inhibits the measured activity by half.

The target of one experiment is EGFR (human) (UniProt P00533).
The target in experiment [1] is EGFR (human), P00533 [L858R].
In experiment [2] the target is EGFR (Human), P00533 [T790M/L858R].
Experiment [3] deals with EGFR (Human), P00533 [Assessment of EGFR-Del T790M Dependent Cell Proliferation in BaF3 Cells].
For experiment [4], the target named is EGFR (Human), P00533 [T790M/L858R]. To be noted: baf3.

Sequence of EGFR (human) (P00533 whole entry, looked up): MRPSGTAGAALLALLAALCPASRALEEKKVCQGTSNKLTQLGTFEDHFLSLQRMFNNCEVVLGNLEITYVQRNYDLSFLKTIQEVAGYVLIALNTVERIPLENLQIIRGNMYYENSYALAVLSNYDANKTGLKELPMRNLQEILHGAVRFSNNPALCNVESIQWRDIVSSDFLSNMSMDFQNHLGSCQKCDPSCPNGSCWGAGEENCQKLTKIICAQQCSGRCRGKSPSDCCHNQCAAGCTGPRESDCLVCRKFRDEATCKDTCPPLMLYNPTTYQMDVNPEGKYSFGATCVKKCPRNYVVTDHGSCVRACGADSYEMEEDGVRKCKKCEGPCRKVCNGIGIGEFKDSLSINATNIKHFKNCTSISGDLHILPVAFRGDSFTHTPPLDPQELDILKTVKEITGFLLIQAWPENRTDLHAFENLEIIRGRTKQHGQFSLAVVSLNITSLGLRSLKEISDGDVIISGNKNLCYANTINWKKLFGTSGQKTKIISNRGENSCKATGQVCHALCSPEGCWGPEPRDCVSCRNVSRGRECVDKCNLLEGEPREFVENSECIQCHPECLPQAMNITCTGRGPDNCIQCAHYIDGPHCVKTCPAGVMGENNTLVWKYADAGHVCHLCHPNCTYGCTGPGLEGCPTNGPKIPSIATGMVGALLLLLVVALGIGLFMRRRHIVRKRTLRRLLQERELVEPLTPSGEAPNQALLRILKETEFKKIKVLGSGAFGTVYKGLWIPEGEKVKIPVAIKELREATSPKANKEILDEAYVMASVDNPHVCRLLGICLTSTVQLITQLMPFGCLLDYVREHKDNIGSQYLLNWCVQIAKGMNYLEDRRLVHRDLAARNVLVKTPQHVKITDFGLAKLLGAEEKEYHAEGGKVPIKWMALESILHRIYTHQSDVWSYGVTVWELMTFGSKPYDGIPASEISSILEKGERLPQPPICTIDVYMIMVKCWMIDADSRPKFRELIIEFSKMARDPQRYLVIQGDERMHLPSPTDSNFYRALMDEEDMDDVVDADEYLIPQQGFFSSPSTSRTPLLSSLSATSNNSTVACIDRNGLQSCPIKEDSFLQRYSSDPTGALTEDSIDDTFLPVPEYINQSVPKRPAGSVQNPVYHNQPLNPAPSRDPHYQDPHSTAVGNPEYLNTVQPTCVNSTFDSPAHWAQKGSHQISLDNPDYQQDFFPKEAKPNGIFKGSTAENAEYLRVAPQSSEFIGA
Sequence of EGFR (Human), P00533 [Assessment of EGFR-Del T790M Dependent Cell Proliferation in BaF3 Cells] (P00533 whole entry, looked up, stated change not applied): as the sequence (P00533 whole entry, looked up) above
Sequence of EGFR (Human), P00533 [T790M/L858R] (P00533 whole entry T790M/L858R, looked up): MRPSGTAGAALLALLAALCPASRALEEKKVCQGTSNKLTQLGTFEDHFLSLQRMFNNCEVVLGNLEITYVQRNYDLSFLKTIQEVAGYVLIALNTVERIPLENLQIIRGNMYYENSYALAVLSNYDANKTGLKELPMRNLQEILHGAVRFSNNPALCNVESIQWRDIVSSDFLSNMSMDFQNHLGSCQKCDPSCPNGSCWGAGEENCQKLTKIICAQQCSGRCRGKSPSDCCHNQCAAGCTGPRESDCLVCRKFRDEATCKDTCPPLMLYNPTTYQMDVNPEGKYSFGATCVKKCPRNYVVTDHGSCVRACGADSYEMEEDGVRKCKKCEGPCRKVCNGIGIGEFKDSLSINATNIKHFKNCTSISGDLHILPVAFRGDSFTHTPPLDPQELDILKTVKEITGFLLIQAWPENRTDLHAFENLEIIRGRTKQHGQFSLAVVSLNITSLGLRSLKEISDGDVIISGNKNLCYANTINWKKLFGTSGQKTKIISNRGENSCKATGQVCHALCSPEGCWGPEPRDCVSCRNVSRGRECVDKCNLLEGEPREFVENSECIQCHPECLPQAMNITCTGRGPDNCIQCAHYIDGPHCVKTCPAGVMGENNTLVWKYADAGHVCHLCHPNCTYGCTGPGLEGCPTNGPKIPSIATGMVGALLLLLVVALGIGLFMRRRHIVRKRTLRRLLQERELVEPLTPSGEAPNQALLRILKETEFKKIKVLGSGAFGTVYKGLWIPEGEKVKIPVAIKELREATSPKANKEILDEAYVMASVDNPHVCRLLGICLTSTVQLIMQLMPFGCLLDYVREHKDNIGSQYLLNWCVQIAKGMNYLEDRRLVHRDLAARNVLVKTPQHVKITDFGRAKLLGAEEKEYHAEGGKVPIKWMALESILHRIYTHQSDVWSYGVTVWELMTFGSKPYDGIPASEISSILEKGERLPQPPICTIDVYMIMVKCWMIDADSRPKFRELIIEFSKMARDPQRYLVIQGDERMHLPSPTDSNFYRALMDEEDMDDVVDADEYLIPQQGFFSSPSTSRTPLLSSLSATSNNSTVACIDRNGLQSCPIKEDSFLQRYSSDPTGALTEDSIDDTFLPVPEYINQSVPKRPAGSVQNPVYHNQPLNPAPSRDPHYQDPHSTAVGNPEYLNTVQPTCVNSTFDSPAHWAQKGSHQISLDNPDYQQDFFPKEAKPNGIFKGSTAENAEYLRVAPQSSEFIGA
Sequence of EGFR (human), P00533 [L858R] (P00533 whole entry L858R, looked up): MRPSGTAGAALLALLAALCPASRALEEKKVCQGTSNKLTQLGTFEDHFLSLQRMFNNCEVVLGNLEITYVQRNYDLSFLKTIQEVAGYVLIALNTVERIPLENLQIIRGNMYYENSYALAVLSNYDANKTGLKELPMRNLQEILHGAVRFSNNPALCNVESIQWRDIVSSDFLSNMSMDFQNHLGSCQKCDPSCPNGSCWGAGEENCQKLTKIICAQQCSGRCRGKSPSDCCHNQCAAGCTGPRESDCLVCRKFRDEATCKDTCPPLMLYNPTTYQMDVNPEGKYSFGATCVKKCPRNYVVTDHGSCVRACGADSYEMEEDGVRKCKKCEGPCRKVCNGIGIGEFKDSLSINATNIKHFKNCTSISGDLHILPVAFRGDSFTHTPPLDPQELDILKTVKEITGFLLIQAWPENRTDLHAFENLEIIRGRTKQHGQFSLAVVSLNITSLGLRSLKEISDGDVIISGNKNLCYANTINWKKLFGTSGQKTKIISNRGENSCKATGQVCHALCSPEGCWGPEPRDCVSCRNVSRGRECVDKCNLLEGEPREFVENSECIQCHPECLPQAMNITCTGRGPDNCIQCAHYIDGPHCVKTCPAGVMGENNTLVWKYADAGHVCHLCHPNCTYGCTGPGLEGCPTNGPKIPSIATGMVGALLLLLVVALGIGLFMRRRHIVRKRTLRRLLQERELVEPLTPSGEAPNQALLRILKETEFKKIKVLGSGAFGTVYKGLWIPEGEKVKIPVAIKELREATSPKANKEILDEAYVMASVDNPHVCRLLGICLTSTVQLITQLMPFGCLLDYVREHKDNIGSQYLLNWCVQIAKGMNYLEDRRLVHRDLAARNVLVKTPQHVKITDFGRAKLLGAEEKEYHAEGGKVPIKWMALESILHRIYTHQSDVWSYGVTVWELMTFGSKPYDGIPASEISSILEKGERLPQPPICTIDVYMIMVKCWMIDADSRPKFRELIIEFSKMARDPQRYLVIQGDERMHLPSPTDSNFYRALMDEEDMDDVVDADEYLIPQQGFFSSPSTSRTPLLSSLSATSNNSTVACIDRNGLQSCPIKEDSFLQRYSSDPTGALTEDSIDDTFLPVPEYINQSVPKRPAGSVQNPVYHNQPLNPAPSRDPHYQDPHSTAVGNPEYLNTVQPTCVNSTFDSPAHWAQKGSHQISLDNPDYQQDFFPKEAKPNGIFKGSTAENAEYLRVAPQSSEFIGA

Turning to `C=CC(=O)Nc1cc(Nc2ncc(Cl)c(Nc3ccccc3P(C)(C)=O)n2)c(OC)cc1C(=O)N1CCN(C)CC1`, the IC50 against EGFR (human) was 101 to 250 nM; in experiment [1], < 50 nM; in experiment [2], < 50 nM.

For `C=CC(=O)N1CCc2cc(Nc3ncc(Cl)c(Nc4ccccc4P(C)(C)=O)n3)c(OC)cc21`, the half-maximal inhibitory concentration (IC50) in experiment [3] is 101 to 250 nM.

Turning to `C=C(CN1CCNC(=O)C1)C(=O)Nc1ccc(OC)c(Nc2ncc(Cl)c(Nc3ccccc3P(C)(C)=O)n2)c1`, the IC50 is < 50 nM against EGFR (human), 101 to 250 nM in experiment [3], < 50 nM in experiment [1] and < 50 nM in experiment [2].

As to `CC#CC(=O)Nc1cc(Nc2ncc(Cl)c(Nc3ccccc3P(C)(C)=O)n2)c(OC)cc1OCC1CCOCC1`, the half-inhibitory concentration (IC50) in experiment [3] was < 50 nM; in experiment [1], 101 to 250 nM; in experiment [4], 50 to 100 nM.

`C=CC(=O)Nc1cc(Cc2ncc(Cl)c(Nc3ccccc3P(C)(C)=O)n2)c(OC)cc1C#CCN(C)C(C)(C)C`: the IC50 (against EGFR (human); in experiment [1]; in experiment [2]) was < 50 nM in each case.

On to `C=CC(=O)Nc1cc(Nc2ncc(Cl)c(Nc3ccccc3P(C)(C)=O)n2)c(OC)cc1N1CCC(N2CCN(CCO)CC2)C1` (stereo not drawn), for which the IC50 (at EGFR (human); in experiment [1]; in experiment [2]) was < 50 nM in each case.

`CNC(=O)/C=C/C(=O)Nc1ccc(OC)c(Nc2ncc(Cl)c(Nc3ccccc3P(C)(C)=O)n2)c1`: the IC50 in experiment [3] is 50 to 100 nM; in experiment [1] it was < 50 nM; in experiment [4], 101 to 250 nM; in experiment [2], < 50 nM.

For the molecule `COc1ccc(NC(=O)C2=CCCN(C)C2)cc1Nc1ncc(Cl)c(Nc2ccccc2P(C)(C)=O)n1`, the IC50 in experiment [1] and in experiment [2] was < 50 nM each time.

In experiment [3], `C=CC(=O)Nc1cc(Nc2ncc(Cl)c(Nc3ccccc3P(C)(C)=O)n2)c(OC)cc1OCC(CO)N(C)C` (stereo not drawn) gave an IC50 of 101 to 250 nM.

With `C=CC(=O)Nc1cc(Nc2ncc(Cl)c(Nc3ccccc3P(C)(C)=O)n2)c(OC)cc1N1CCC(N2CCC(O)C2)C1` (stereo not drawn), the IC50 was < 50 nM against EGFR (human), 101 to 250 nM in experiment [3], < 50 nM in experiment [1] and < 50 nM in experiment [2].

Molecule `COc1ccc(NC(=O)/C=C\C(=O)O)cc1Nc1ncc(Cl)c(Nc2ccccc2P(C)(C)=O)n1` registered a 50% inhibitory concentration (IC50) in experiment [2] of 101 to 250 nM.

In the case of `C=CC(=O)Nc1ccc(OC)c(Nc2cc(Nc3ccccc3P(C)(C)=O)ncn2)c1`, the values for the half-inhibitory concentration (IC50) (on EGFR (human); in experiment [1]; in experiment [2]) were 50 to 100 nM, < 50 nM and 101 to 250 nM, respectively.

With `C=CC(=O)Nc1ccc(OC)c(Nc2ncc(Cl)c(Nc3ccccc3P(C)(C)=O)n2)c1`, the IC50 in experiment [3] is 101 to 250 nM; in experiment [1] it was < 50 nM; in experiment [2], < 50 nM.

As to `COc1cc(P(C)(C)=O)ccc1Nc1ncc(Cl)c(Oc2cccc(NC(=O)C#CCN(C)C)c2)n1`, the half-inhibitory concentration (IC50) was < 50 nM on EGFR (human), 101 to 250 nM in experiment [3], < 50 nM in experiment [1] and < 50 nM in experiment [2].

Regarding `C=CC(=O)Nc1cc(Cc2ncc(Cl)c(Nc3ccccc3P(C)(C)=O)n2)c(OC)cc1C#CCN1CCC(N(C)C)C1` (stereo not drawn), the half-inhibitory concentration (IC50) at EGFR (human) is 50 to 100 nM; in experiment [1], < 50 nM; in experiment [2], < 50 nM.

Regarding `C=C(C(=O)Nc1ccc(OC)c(Nc2ncc(Cl)c(Nc3ccccc3P(C)(C)=O)n2)c1)C(F)(F)F`, the IC50 (at EGFR (human); in experiment [1]; in experiment [2]) was < 50 nM in each case.

With `COc1ccc(NC(=O)/C=C/C2(N)CC2)cc1Nc1ncc(Cl)c(Nc2ccccc2P(C)(C)=O)n1`, the half-maximal inhibitory concentration (IC50) against EGFR (human) is 101 to 250 nM; in experiment [1] it was < 50 nM; in experiment [2], < 50 nM.

Turning to `C=CC(=O)Nc1cc(Nc2ncc(Cl)c(Nc3ccccc3P(C)(C)=O)n2)c(OC)cc1OC1CN(C)C1`, the values for the IC50 in experiment [3] and in experiment [4] were 50 to 100 nM and 101 to 250 nM, respectively.

`C=CC(=O)Nc1ccc(OC)c(Nc2ncc(C#N)c(Nc3ccccc3P(C)(C)=O)n2)c1`: the IC50 against EGFR (human) is < 50 nM; in experiment [3] it was 101 to 250 nM; in experiment [1] it was < 50 nM; in experiment [2] it was < 50 nM.

As for `COc1ccc(NC(=O)/C=C/C(=O)N2CCN(C)CC2)cc1Nc1ncc(Cl)c(Nc2ccccc2P(C)(C)=O)n1`, the IC50 against EGFR (human) is < 50 nM; in experiment [3], 101 to 250 nM; in experiment [1], < 50 nM; in experiment [2] it was < 50 nM.

For the molecule `COc1ccc(NC(=O)/C=C/C(=O)N(C)C)cc1Nc1ncc(Cl)c(Nc2ccccc2P(C)(C)=O)n1`, the half-inhibitory concentration (IC50) is 50 to 100 nM in experiment [1] and 101 to 250 nM in experiment [2].

Regarding `C=CC(=O)Nc1cc(Nc2ncc(Cl)c(Nc3ccccc3P(C)(C)=O)n2)c(OC)cc1OCC1CCN(C)CC1`, the half-maximal inhibitory concentration (IC50) against EGFR (human) is 50 to 100 nM; in experiment [3] it was 101 to 250 nM; in experiment [1], < 50 nM; in experiment [2] it was < 50 nM.

With `COc1ccc(NC(=O)/C=C\C(=O)NCCN(C)C)cc1Nc1ncc(Cl)c(Nc2ccccc2P(C)(C)=O)n1`, the IC50 in experiment [1] and in experiment [2] was < 50 nM throughout.

Turning to `COc1ccc(NC(=O)/C=C/CN2CCCC2)cc1Nc1ncc(Cl)c(Nc2ccccc2P(C)(C)=O)n1`, the IC50 in experiment [3] was 50 to 100 nM; in experiment [1] it was < 50 nM; in experiment [2], < 50 nM.

Turning to `C=CC(=O)Nc1ccc(F)c(Nc2ncc(Cl)c(Nc3ccccc3P(C)(C)=O)n2)c1`, the IC50 in experiment [3] and in experiment [4] was < 50 nM each time.

As for `COc1ccc(NC(=O)CF)cc1Nc1ncc(Cl)c(Nc2ccccc2P(C)(C)=O)n1`, the half-inhibitory concentration (IC50) fell in the range of 50 to 100 nM in experiment [1] and 101 to 250 nM in experiment [2].

`COc1ccc(NC(=O)/C=C\C(=O)N2CCN(C)CC2)cc1Nc1ncc(Cl)c(Nc2ccccc2P(C)(C)=O)n1` came in with an IC50 in experiment [1] of 101 to 250 nM.

Turning to `C=C(CN1CCS(=O)(=O)CC1)C(=O)Nc1ccc(OC)c(Nc2ncc(Cl)c(Nc3ccccc3P(C)(C)=O)n2)c1`, the half-inhibitory concentration (IC50) in experiment [1] is 50 to 100 nM; in experiment [2] it was < 50 nM.

As for `C=CC(=O)Nc1cc(Nc2ncc(Cl)c(Nc3ccccc3P(C)(C)=O)n2)c(OC)cc1N1CCC(N)C1` (stereo not drawn), the IC50 (against EGFR (human); in experiment [1]; in experiment [2]) was < 50 nM in each case.

With `C=CC(=O)Nc1cc(Nc2ncc(Cl)c(Nc3ccccc3P(C)(C)=O)n2)c(OC)cc1OCC1CCCN1C` (stereo not drawn), the IC50 in experiment [3] and in experiment [4] was < 50 nM throughout.

`COc1ccc(NC(=O)/C=C/C(=O)NCCN(C)C)cc1Nc1ncc(Cl)c(Nc2ccccc2P(C)(C)=O)n1`: the IC50 (at EGFR (human); in experiment [1]; in experiment [2]) was < 50 nM throughout.

Regarding `C=CC(=O)Nc1cc(Nc2ncc(Cl)c(Nc3ccccc3P(C)(C)=O)n2)c(OC)cc1N1CCC(N2CCC(O)CC2)C1` (stereo not drawn), the concentration for half-maximal inhibition (IC50) is < 50 nM on EGFR (human), 101 to 250 nM in experiment [3], < 50 nM in experiment [1] and < 50 nM in experiment [2].

Regarding `C=CC(=O)Nc1cc(Nc2ncc(Cl)c(Nc3ccccc3P(C)(C)=O)n2)c(OC)cc1CCN1CCN(C)CC1`, the IC50 against EGFR (human) was < 50 nM; in experiment [3], 101 to 250 nM; in experiment [1], < 50 nM; in experiment [2], < 50 nM.

With `C=CC(=O)Nc1cc(Nc2ncc(Cl)c(Nc3ccccc3P(C)(C)=O)n2)c(OC)cc1OCCN1CCN(C)CC1`, the values for the concentration for half-maximal inhibition (IC50) (at EGFR (human); in experiment [1]; in experiment [2]) were 101 to 250 nM, < 50 nM and < 50 nM, respectively.

With `C=CC(=O)Nc1cc(Cc2ncc(Cl)c(Nc3ccccc3P(C)(C)=O)n2)c(OC)cc1C#CCN1CCC(C)CC1`, the half-maximal inhibitory concentration (IC50) (against EGFR (human); in experiment [1]; in experiment [2]) was < 50 nM in each case.
